# Source: patent publication US7943160B2, “Pest control methods” (priority 2002, dated 2011)
# Several values for one entry are separate records, joined by “and”; a condition that tells them apart may be missing. Equal values may be shown once.
# What was measured:
# Format in all cases: in vivo
# [1] = test system: larval ticks (I. scapularis); assay: Systemic efficacy of fipronil diet on larval ticks fed on laboratory mice; details: diet compositions containing 960-ppm fipronil (so in the source)
# [2] = test system: larval ticks (I. scapularis); assay: as above; details: for Replete Ticks: individual mice; for Replete Ticks, Total: 8 mice
# Description: To investigate the systemic efficacy of fipronil against ticks, diet compositions formulated with the compound were presented to treatment mice while an EPA challenge diet, without insecticide, was presented to control mice. Diet compositions were presented for 48 hours. Water was supplied ad libitum. Feed consumption was monitored throughout the study. After 48-hours, mice were removed from their cages and 50-70 I. scapularis were applied to each mouse by first placing mice in 50 ml centrifuge tubes will multiple holes in them. Holes were created by melting the centrifuge tube with a soldering iron. Ticks were then applied and mice remained restrained in the tubes for 2-5 hours, thereby allowing the ticks to attach. The mice were placed in cages suspended over water in a humidity chamber maintaining humidity between 60-80%. Water underneath the suspended mice was checked daily for the presence of ticks falling from the mice. The number of fed and unfed ticks was recorded. Water pans were checked for 6 days. The ticks were kept at 21° C., 90% humidity and a light cycle of 16L:8D. Pans were checked for 5 days. The end-point for the insecticides were larval tick mortality after exposure.
# Study 1a: A Diet Composition Containing 970-ppm Fipronil Diet was Formulated Using Inert Ingredients of Rolled Oats, Corn Meal, Powdered Sugar and Corn Oil.
# The diet was exposed to laboratory mice for 48 hours.
# Study 2a: A Diet Composition Containing 485-ppm Fipronil Diet was Formulated and Exposed to Laboratory Mice for 48 Hours.
# The diet was exposed to laboratory mice for 48 hours. Ticks were applied directly to the mice.
# [3] = test system: X. cheopis fleas; assay: Flea mortality on rats fed imidacloprid or imidacloprid/piperonyl butoxide diet
# Description: For example, an investigation was conducted into the ability of piperonyl butoxide to potentiate the insecticidal activity of orally administered imidacloprid to rats challenged with fleas. Piperonyl butoxide compound is known to produce significant decreases in hepatic cytochrome P450 in rats (Dalvi and Dalvi 1991). Because imidacloprid is also metabolized by cytochrome P450 in rats (Schulz-Jander et al. 2002), decreasing the metabolism rate of imidacloprid in the rat (i.e., the rate at which imidacloprid is metabolized by the rat) may increase the availability and therefore the toxicity of the compound to fleas as well as possibly increasing the residual action of the insecticide. Four rats were evaluated for each test diet. Rats were individually housed in individual cages. Rats were housed in cages measuring 24×40.5×18 cm (L×W×H). The floor area measured 972 cm^2. Tap water in glass bottles with stainless steel sipper tubes was available ad libitum. Cages were suspended from shelves on two, single-sided racks. Rats were placed in cages identified by a consecutive number 1-8 and a descriptor for their sex (e.g. M or F). PBO Technical (Prentox®) was received from Prentiss Inc. (Floral Park, N.Y., Lot# 41428). Diet composition was made using the following recipes:
# The imidacloprid (Imi) diet composition was formulated at 167 mg/kg imidacloprid. The imidacloprid/PBO diet composition was formulated at 169 mg/kg imidacloprid and 1% PBO. Diets were mixed and presented no-choice to rats for 24 hours. Flea feeding capsules, containing fleas (X. cheopis) were secured to the rats and remained attached for 5 hrs. After exposure, the flea feeders were removed and placed in the humidity chamber until the following morning. Fleas were then evaluated for mortality and morbidity (Table 5).
# [4] = test system: German cockroaches; assay: Cockroach mortality on rodent challenge diet fortified with imidacloprid; details: EPA challenge diet fortified with 250 mg/kg imidacloprid
# Description: To determine if rodent diet compositions containing imidacloprid would be effective at controlling cockroaches, German cockroaches were received from a commercial supplier and placed in a sealed container. Rodent “challenge diet”, the EPA standard rodent diet formulation, fortified with 250 mg/kg imidacloprid was placed in the cage. Water was supplied by a wet cotton wick. The mortality of cockroaches consuming diet was 100%.
SMILES,preventing ticks from feeding to repletion [1],"Replete Ticks ([2]; 485 ppm fipronil diet 48 hours, 70 ticks applied per mouse)","Replete Ticks, Total ([2]; 485 ppm fipronil diet, 70 ticks each, control total 162)","Replete Ticks ([2]; 970-ppm fipronil diet 48 hours, 50 ticks applied per mouse)","Replete Ticks, Total ([2]; 970-ppm fipronil diet, 50 ticks each, control total 12)",prevents ticks from feeding to repletion ([2]; fipronil formulated at 485 mg/kg in diet),"Total fleas dead/recovered ([3]; 4 rats per diet, pooled)","Total Percent Mortality (%) ([3]; 4 rats per diet, Imi 167 mg/kg, Imi/pip 169 mg/kg imidacloprid and 1% PBO)","# Fleas Dead/# Fleas Recovered ([3]; individual rats, diet 24 hours, flea capsules attached 5 hrs, Imi 167 mg/kg, Imi/pip 169 mg/kg imidacloprid and 1% PBO)",mortality of cockroaches consuming diet [4]
"N#Cc1nn(-c2c(Cl)cc(C(F)(F)F)cc2Cl)c(N)c1[S+]([O-])C(F)(F)F (stereo not shown) [Fipronil, fipronil]",effective at preventing ticks from feeding to repletion,0,0,0,0,prevents ticks from feeding to repletion,,,,
"O=[N+]([O-])NC1=NCCN1Cc1ccc(Cl)nc1 [Imidacloprid, imidacloprid]",,,,,,,(71/85),83.5%,20/24 and 18/18 and 15/15 and 18/28,100%
